Experimental data published in US20200121684A1, “MODULATORS OF BTK PROTEOLYSIS AND METHODS OF USE” (Yale University, priority 2018, published 2020).
Structures can show the parent of a compound that is named as a salt. Where two headings read alike, the source gives them in different places. Values belong to the compound of their own block, whether it stands above or below them.

Tests used:
BTK = biological target: T1, BTK (Homo sapiens, UniProt Q06187); experiment: BTK degradation in NAMALWA cells, immunoblot; type: cell-based
T1 construct: host or cells: NAMALWA

[1] = Pharmacokinetics after IV compound administration in mice; type: in vivo; conditions: for pharmacokinetic profile relative to COMPOUND 102: IV mice; for Clearance (Cl) / Half Life (t1/2) / Cmax / AUC(0-t): IV mice (1 mg/Kg); for Cmax: Tmax 0.033 h; for AUC(0-t): mouse, in vivo, read-out: Exposure (AUClast)
HER3 = biological target: T2, HER3 (Homo sapiens, UniProt P21860); experiment: HER3 (ERBB3) degradation, immunoblot; type: cell-based; conditions: Table 5
T2 construct: endogenous in cells

C481S BTK = C481S BTK (Homo sapiens, UniProt Q06187, C481S); experiment: In vitro kinase inhibition, recombinant BTK, 10-point dose response, 10 μM ATP
Chain of C481S BTK (Q06187 whole entry C481S): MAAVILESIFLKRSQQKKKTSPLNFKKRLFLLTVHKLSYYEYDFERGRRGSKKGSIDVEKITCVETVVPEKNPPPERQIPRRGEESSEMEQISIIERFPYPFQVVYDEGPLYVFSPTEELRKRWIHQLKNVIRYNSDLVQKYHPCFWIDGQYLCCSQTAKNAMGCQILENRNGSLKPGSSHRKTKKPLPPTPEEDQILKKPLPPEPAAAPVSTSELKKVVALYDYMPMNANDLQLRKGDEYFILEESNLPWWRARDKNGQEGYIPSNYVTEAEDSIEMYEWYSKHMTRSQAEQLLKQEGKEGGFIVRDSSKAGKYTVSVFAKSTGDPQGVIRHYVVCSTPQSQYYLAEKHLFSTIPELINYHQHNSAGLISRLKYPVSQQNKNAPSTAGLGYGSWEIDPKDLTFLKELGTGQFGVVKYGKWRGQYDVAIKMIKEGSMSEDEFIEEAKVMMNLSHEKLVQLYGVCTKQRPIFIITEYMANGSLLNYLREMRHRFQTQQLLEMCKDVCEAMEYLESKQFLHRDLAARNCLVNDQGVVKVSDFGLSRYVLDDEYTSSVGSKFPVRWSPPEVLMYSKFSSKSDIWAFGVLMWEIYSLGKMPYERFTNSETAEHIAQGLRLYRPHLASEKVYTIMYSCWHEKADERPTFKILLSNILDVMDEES

T1 sequence (Q06187 whole entry): as the sequence (Q06187 whole entry C481S) above, with S481C counted along it
T2 sequence (P21860 20-1342): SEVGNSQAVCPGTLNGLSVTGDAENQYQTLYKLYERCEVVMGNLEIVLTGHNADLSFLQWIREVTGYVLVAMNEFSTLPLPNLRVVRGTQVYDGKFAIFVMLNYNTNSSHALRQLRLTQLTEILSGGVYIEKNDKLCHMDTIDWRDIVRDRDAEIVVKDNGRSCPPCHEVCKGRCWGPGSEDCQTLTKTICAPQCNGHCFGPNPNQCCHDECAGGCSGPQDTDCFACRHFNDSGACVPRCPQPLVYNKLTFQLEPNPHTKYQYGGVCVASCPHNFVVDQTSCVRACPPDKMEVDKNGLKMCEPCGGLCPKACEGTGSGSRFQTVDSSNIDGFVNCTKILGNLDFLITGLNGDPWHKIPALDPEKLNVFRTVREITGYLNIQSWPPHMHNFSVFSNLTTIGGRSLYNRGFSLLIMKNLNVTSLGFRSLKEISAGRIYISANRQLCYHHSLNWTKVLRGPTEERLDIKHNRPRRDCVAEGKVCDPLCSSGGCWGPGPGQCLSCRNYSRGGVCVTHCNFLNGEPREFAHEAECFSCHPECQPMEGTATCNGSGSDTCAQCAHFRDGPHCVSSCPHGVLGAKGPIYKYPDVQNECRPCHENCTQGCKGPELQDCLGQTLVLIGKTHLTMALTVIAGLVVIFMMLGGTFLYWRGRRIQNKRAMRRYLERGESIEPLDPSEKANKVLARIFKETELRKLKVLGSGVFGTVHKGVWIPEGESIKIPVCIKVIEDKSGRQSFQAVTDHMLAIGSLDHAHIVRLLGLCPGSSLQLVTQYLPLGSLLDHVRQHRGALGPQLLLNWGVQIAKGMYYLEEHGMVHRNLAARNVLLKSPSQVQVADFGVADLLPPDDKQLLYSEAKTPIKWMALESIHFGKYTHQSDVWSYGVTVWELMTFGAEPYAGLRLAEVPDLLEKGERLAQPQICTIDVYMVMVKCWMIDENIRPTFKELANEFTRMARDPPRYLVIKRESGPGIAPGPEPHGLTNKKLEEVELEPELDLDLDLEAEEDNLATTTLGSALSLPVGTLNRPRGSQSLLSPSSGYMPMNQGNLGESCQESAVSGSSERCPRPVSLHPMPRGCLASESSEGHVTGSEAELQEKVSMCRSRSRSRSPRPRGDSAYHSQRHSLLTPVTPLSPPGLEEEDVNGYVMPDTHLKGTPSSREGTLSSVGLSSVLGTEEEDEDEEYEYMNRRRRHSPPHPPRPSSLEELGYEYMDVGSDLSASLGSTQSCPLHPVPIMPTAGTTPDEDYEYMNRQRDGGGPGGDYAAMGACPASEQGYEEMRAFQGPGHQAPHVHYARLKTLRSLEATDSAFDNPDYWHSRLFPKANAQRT

Compound: Nc1ncnc2c1c(-c1ccc(Oc3ccccc3)cc1)nn2C1CCN(CCOCCOCCOc2ccc3c(c2)CN(C2CCC(=O)NC2=O)C3=O)CC1 (stereo not shown) [COMPOUND 135, 3-(5-(2-(2-(2-(4-(4-amino-3-(4-phenoxyphenyl)-1H-pyrazolo[3,4-d]pyrimidin-1-yl)piperidin-1-yl)ethoxy)ethoxy)ethoxy)-1-oxoisoindolin-2-yl)piperidine-2,6-dione]
degradation potency/profile compared with COMPOUND 102 (BTK; NAMALWA cells): similarly potent to COMPOUND 102 | Dmax (BTK; NAMALWA cells, read-out: Dmax): > 99% | DC50 (BTK; Table 5, NAMALWA cells): 8 nM | DC50 (BTK; Table 6, in NAMALWA cells line): 8 nM | Dmax (BTK; Table 6, in NAMALWA cells line): >99% | pharmacokinetic profile relative to COMPOUND 102 [1]: superior pharmacokinetic profiles relative to COMPOUND 102 | Clearance (Cl) [1]: 40.8 mL/min/kg | Half Life (t1/2) [1]: 1.64 h | Cmax [1]: 2100 ng/mL | AUC(0-t) [1]: 405 ng·h/mL

Compound: Nc1ncnc2c1c(-c1ccc(Oc3ccccc3)cc1)nn2C1CCN(CCCCCCOCCOCC(=O)Nc2cccc3c2C(=O)N(C2CCC(=O)NC2=O)C3=O)CC1 (stereo not shown) [Compound 104, 2-(2-(6-(4-(4-amino-3-(4-phenoxyphenyl)-1H-pyrazolo[3,4-d]pyrimidin-1-yl)piperidin-1-yl)hexyloxy)ethoxy)-N-(2-(2,6-dioxopiperidin-3-yl)-1,3-dioxoisoindolin-4-yl)acetamide]
BTK degradation at 1.0 μM (BTK; NAMALWA cells): nearly complete degradation of BTK | HER3 Degradation (HER3): No

Compound: Nc1ncnc2c1c(-c1ccc(Oc3ccccc3)cc1)nn2C1CCN(CCCCCCOCCCCCCOCC(=O)Nc2cccc3c2C(=O)N(C2CCC(=O)NC2=O)C3=O)CC1 (stereo not shown) [Compound 107, 2-(6-(6-(4-(4-amino-3-(4-phenoxyphenyl)-1H-pyrazolo[3,4-d]pyrimidin-1-yl)piperidin-1-yl)hexyloxy)hexyloxy)-N-(2-(2,6-dioxopiperidin-3-yl)-1,3-dioxoisoindolin-4-yl)acetamide]
HER3 Degradation (HER3): No

Compound: Nc1ncnc2c1c(-c1ccc(Oc3ccccc3)cc1)nn2C1CCNCC1 [compound 1, 3-(4-phenoxyphenyl)-1-(piperidin-4-yl)-1H-pyrazolo[3,4-d]pyrimidin-4-amine hydrochloride, reference compound]
inhibition potency against C481S mutant BTK relative to wild-type (C481S BTK): retained inhibition potency

Compound: Nc1ncnc2c1c(-c1ccc(Oc3ccccc3)cc1)nn2C1CCN(CCCOCCCOCCC(=O)Nc2cccc3c2C(=O)N(C2CCC(=O)NC2=O)C3=O)CC1 (stereo not shown) [Compound 103, 3-(3-(3-(4-(4-amino-3-(4-phenoxyphenyl)-1H-pyrazolo[3,4-d]pyrimidin-1-yl)piperidin-1-yl)propoxy)propoxy)-N-(2-(2,6-dioxopiperidin-3-yl)-1,3-dioxoisoindolin-4-yl)propanamide]
HER3 Degradation (HER3): No

Compound: Nc1ncnc2c1c(-c1ccc(Oc3ccccc3)cc1)nn2C1CCN(CCCCOCCCCOCC(=O)Nc2cccc3c2C(=O)N(C2CCC(=O)NC2=O)C3=O)CC1 (stereo not shown) [Compound 106, 2-[4-[4-[4-[4-amino-3-(4-phenoxyphenyl)pyrazolo[3,4-d]pyrimidin-1-yl]-1-piperidyl]butoxy]butoxy]-N-[2-(2,6-dioxo-3-piperidyl)-1,3-dioxo-isoindolin-4-yl]acetamide]
BTK degradation at 1.0 μM (BTK; NAMALWA cells): nearly complete degradation of BTK | HER3 Degradation (HER3): No

Compound: Nc1ncnc2c1c(-c1ccc(Oc3ccccc3)cc1)nn2C1CCN(CCCCOCCCCOCC(=O)Nc2ccc3c(c2)C(=O)N(C2CCC(=O)NC2=O)C3=O)CC1 (stereo not shown) [Compound 105, 2-[4-[4-[4-[4-amino-3-(4-phenoxyphenyl)pyrazolo[3,4-d]pyrimidin-1-yl]-1-piperidyl]butoxy]butoxy]-N-[2-(2,6-dioxo-3-piperidyl)-1,3-dioxo-isoindolin-5-yl]acetamide]
HER3 Degradation (HER3): No

Compound: (2S,4R)-1-((S)-25-(4-(4-amino-3-(4-phenoxyphenyl)-1H-pyrazolo[3,4-d]pyrimidin-1-yl)piperidin-1-yl)-2,2-dimethyl-5-oxo-7,10,13,16,19-pentaoxa-4-azapentacosanecarbonyl)-4-hydroxy-N-(4-(4-methylthiazol-5-yl)benzyl)pyrrolidine-2-carboxamide [Compound 118]
DC50 (BTK; Table 5, NAMALWA cells): 231 nM | HER3 Degradation (HER3): No

Compound: Nc1ncnc2c1c(-c1ccc(Oc3ccccc3)cc1)nn2C1CCN(CCOCCOCCOc2ccc3c(c2)C(=O)N(C2CCC(=O)NC2=O)C3=O)CC1 (stereo not shown) [COMPOUND 131, 5-(2-(2-(2-(4-(4-amino-3-(4-phenoxyphenyl)-1H-pyrazolo[3,4-d]pyrimidin-1-yl)piperidin-1-yl)ethoxy)ethoxy)ethoxy)-2-(2,6-dioxopiperidin-3-yl)isoindoline-1,3-dione]
degradation potency/profile compared with COMPOUND 102 (BTK; NAMALWA cells): similarly potent degradation profile as COMPOUND 102 | DC50 (BTK; Table 5, NAMALWA cells): 11 nM | DC50 (BTK; Table 6, in NAMALWA cells line): 11 nM | Dmax (BTK; Table 6, in NAMALWA cells line, read-out: Dmax): > 99% | pharmacokinetic profile relative to COMPOUND 102 [1]: superior pharmacokinetic profiles relative to COMPOUND 102 | Clearance (Cl) [1]: 102 mL/min/kg | Half Life (t1/2) [1]: 1.62 h | Cmax [1]: 831 ng/mL | AUC(0-t) [1]: 166 ng·h/mL

Second part, the compound after the results:

HER3 Degradation (HER3): No
Compound: Cc1ncsc1-c1ccc(CNC(=O)[C@@H]2C[C@@H](O)CN2C(=O)[C@@H](NC(=O)COCCOCCOCCOCCCCCCN2CCC(n3nc(-c4ccc(Oc5ccccc5)cc4)c4c(N)ncnc43)CC2)C(C)(C)C)cc1 [Compound 115, (2S,4R)-1-((S)-22-(4-(4-amino-3-(4-phenoxyphenyl)-1H-pyrazolo[3,4-d]pyrimidin-1-yl)piperidin-1-yl)-2,2-dimethyl-5-oxo-7,10,13,16-tetraoxa-4-azadocosanecarbonyl)-4-hydroxy-N-(4-(4-methylthiazol-5-yl)benzyl)pyrrolidine-2-carboxamide]

HER3 Degradation (HER3): No
Compound: Cc1ncsc1-c1ccc(CNC(=O)[C@@H]2C[C@@H](O)CN2C(=O)[C@@H](NC(=O)COCCOCCOCCOCCCCN2CCC(n3nc(-c4ccc(Oc5ccccc5)cc4)c4c(N)ncnc43)CC2)C(C)(C)C)cc1 [Compound 113, (2S,4R)-1-((S)-19-(4-(4-amino-3-(4-phenoxyphenyl)-1H-pyrazolo[3,4-d]pyrimidin-1-yl)piperidin-1-yl)-2-tert-butyl-4-oxo-6,9,12,15-tetraoxa-3-azanonadecane)-4-hydroxy-N-(4-(4-methylthiazol-5-yl)benzyl)pyrrolidine-2-carboxamide]

HER3 Degradation (HER3): No
Compound: Cc1ncsc1-c1ccc(CNC(=O)[C@@H]2C[C@@H](O)CN2C(=O)[C@@H](NC(=O)COCCCCCOCCCCCCN2CCC(n3nc(-c4ccc(Oc5ccccc5)cc4)c4c(N)ncnc43)CC2)C(C)(C)C)cc1 [Compound 111, (2S,4R)-1-((S)-2-(2-(5-(6-(4-(4-amino-3-(4-phenoxyphenyl)-1H-pyrazolo[3,4-d]pyrimidin-1-yl)piperidin-1-yl)hexyloxy)pentyloxy)acetamido)-3,3-dimethylbutanoyl)-4-hydroxy-N-(4-(4-methylthiazol-5-yl)benzyl)pyrrolidine-2-carboxainide]

HER3 Degradation (HER3): No
Compound: Cc1ncsc1-c1ccc(CNC(=O)[C@@H]2C[C@@H](O)CN2C(=O)[C@@H](NC(=O)COCCOCCOCCOCCN2CCC(n3nc(-c4ccc(Oc5ccccc5)cc4)c4c(N)ncnc43)CC2)C(C)(C)C)cc1 [Compound 109, (2S,4R)-1-((S)-17-(4-(4-amino-3-(4-phenoxyphenyl)-1H-pyrazolo[3,4-d]pyrimidin-1-yl)piperidin-1-yl)-2-tert-butyl-4-oxo-6,9,12,15-tetraoxa-3-azaheptadecane)-4-hydroxy-N-(4-(4-methylthiazol-5-yl)benzyl)pyrrolidine-2-carboxamide]

HER3 Degradation (HER3): No
Compound: Cc1ncsc1-c1ccc(CNC(=O)[C@@H]2C[C@@H](O)CN2C(=O)[C@@H](NC(=O)COCCOCCOCCOCCN2CCN(C3CCC(n4nc(-c5ccc(Oc6ccccc6)cc5)c5c(N)ncnc54)CC3)CC2)C(C)(C)C)cc1 (stereo partly drawn) [Compound 114, (2S,4R)-1-((S)-17-(4-(4-(4-amino-3-(4-phenoxyphenyl)-1H-pyrazolo[3,4-d]pyrimidin-1-yl)cyclohexyl)piperazin-1-yl)-2-tert-butyl-4-oxo-6,9,12,15-tetraoxa-3-azaheptadecane)-4-hydroxy-N-(4-(4-methylthiazol-5-yl)benzyl)pyrrolidine-2-carboxamide]
